# In patent publication US20250101046A1 (TAE Life Sciences LLC, priority 2023, published 2025):
# Legend:
# intracranial tumor = settings: BNCT, beam directed to surgically exposed intracranial tumor; cited from earlier work
# [1] = Solubility in water / need of fructose to aid solubility; assay type: physicochemical
requirement of fructose to aid solubility [1],solubility in water ([1]; water),"threshold of solubility compared to BPA ([1]; with fructose, versus BPA)",Compound,5-year survival rate (intracranial tumor) [%]
,,,undecahydro-closo-dodecaboratethiol [BSH],58
does require fructose,very soluble,much higher compared to BPA,"COc1ccc(C[C@H](N)C(=O)O)cc1[10B](O)O [TC221, (S)-2-(amino)-3-(4-methoxy-3-boronic acid)propionic acid]",
